The values below come from PMC6274357, “Antiprotozoal and Antiglycation Activities of Sesquiterpene Coumarins from Ferula narthex Exudate” (Molecules, 2016).

In assay [1] the test system is MRC-5: Human fetal lung fibroblasts. In words: Cytotoxicity on MRC-5 cells. The assay is classed as cell-based. To be noted: MRC5. On the procedure:
(§1) Fractions and isolated compounds were evaluated for antimicrobial activity in an integrated screening panel as reported before.

A further assay concerns Plasmodium falciparum K1. In words: Antiplasmodial activity. Format: cell-based. To be noted: K1, read-out: IC50 Pf-K1. On the procedure: as §1
The subject of another assay is Trypanosoma brucei. Put plainly: Antitrypanosomal activity, T. brucei. To be noted: read-out: IC50 T. bruc. The assay is classed as cell-based. As to the method:
as §1

The test system of another assay is Trypanosoma cruzi. Put plainly: Antitrypanosomal activity, T. cruzi. The assay is classed as cell-based. To be noted: read-out: IC50 T. cruz. As to the method: as §1
In another assay the test system is Leishmania infantum. Put plainly: Antileishmanial activity, L. infantum. The assay is classed as cell-based. As to the method:
as §1

For assay [2], the system named is Peritoneal Murine Macrophages (PMM). Put plainly: Cytotoxicity on peritoneal murine macrophages. To be noted: Mus musculus, Macrophage. Format: cell-based. On the procedure:
as §1

The subject of assay [3] is formation of Advanced Glycation Endproducts (AGEs), BSA-glucose. In words: BSA-glucose antiglycation assay. Format: biochemical, bovine. To be noted: for BSA-Glucose % Inhibition: at 0.25 mM (table footnote a). On the procedure: The BSA (bovine serum albumin) -glucose and BSA-MGO (methyl glyoxal) antiglycation assays were carried out as reported before. The test protocol is attached as Supplementary Materials. […]
1. Antiglycation Assay (BSA-Glucose Assay)
The antiglycation assay was performed according to the method developed by Matsuura et al.
(2002) with minor modifications. The reaction mixture (300 μL) contained bovine serum albumin
(BSA) (10 mg/mL, 135 μL), D-glucose (500 mM, 135 μL) dissolved in phosphate buffer (50 mM, pH
7.4, containing sodium azide (0.02%, added to prevent bacterial growth) and test compounds (30 μL),
at different final concentrations (1.5–0.023 mM for isolated constituents or 100–1.17 μg/mL for
extracts) dissolved in 100 % DMSO. The mixtures were incubated at 60 °C for 48 h. After incubation,
the reaction mixture was allowed to cool down at room temperature. Then 100 μL reaction mixture
was transferred to a new plastic tube (1.5 mL) and the reaction was stopped by adding 10 μL of 100%
(w/v) trichloroacetic acid (TCA) and to precipitate proteins. The TCA-added mixture was kept at 4 °C
for 10 min, followed by centrifugation (14,000 rpm, 4 °C, 4 min). The supernatant containing unreacted
D-glucose, test sample and interfering substances was discarded, whereas the precipitate containing
AGEs-BSA was redissolved with 0.8 mL alkaline PBS (137 mM NaCl, 8.1 mM Na2HPO4, 2.68 mM KCl,
1.47 mM KH2PO4, pH 10). The change in fluorescence intensity (excitation 335 nm, emission 385 nm;
excitation 370, emission 440) due to formation of AGEs was monitored by spectrofluorometry
(Tecan™ Infinite M200, Giessen, The Netherlands). In order to eliminate interference by autofluorescenc e
of the test compounds, a parallel incubation of test substance with BSA at 60 °C without D-glucose
was performed for all samples. Quercetin (0.5–0.0312 mM final concentration) and aminoguanidine
(3–0.046 mM final concentration) were used as reference compounds.
2. The AGEs Inhibition was Calculated as
% inhibition = {1 − (FBSA + glucose + test substance − FBSA + test substance)/(FBSA
+ glucose − FBSA)} × 100 (1)
where F is the fluorescence intensity.
calculated using Sigma plot® 13.0. […]

Assay [4] deals with formation of Advanced Glycation Endproducts (AGEs), BSA-MGO (methyl glyoxal). In words: BSA-MGO antiglycation assay. The assay is classed as biochemical, bovine. On the procedure: The BSA (bovine serum albumin) -glucose and BSA-MGO (methyl glyoxal) antiglycation assays were carried out as reported before. The test protocol is attached as Supplementary Materials.
Supplementary Materials: Antiprotozoal and
Antiglycation Activities of Sesquiterpene Coumarins
from Ferula narthex Exudate […]
2. The AGEs Inhibition was Calculated as […]
3. Protein-Glyoxal Interaction (BSA-MGO Assay)
The antiglycation assay using methylgloxyl (MGO) was performed according to the method
developed by Peng et al. (2007) with slight modifications. Briefly, methylglyoxal (135 μL, 5.75 mM)
was incubated with BSA (135 μL, 10 mg/mL) dissolved in phosphate buffer (50 mM, pH 7.4,
containing sodium azide (0.02%), added to prevent bacterial growth) and test compounds (30 μL) at
different final concentrations (1.5–0.023 mM) in 100% DMSO. The reaction mixture was incubated at
37 °C for one week. Control solutions only contained methylglyoxal (135 μL, 5.75 mM) BSA (135 μL,
1 0 mg/mL) and DMSO (100%) only. The blank samples of similar composition were also prepared
simultaneously and kept at 4 °C for one week. The change in fluorescence intensity (excitation
335 nm, emission 385 nm; excitation 370, emission 440) due to formation of AGEs was monitored by
spectrofluorometry (Tecan® Infinite M200, Giessen, The Netherlands). Aminoguanidine (3–0.046 mM
final concentration) was used as reference compound. The AGEs inhibition was calculated as
% AGEs inhibition = [1 − (S − Sb)/(C − Cb)] × 100 (2)
where S and C were fluorescence of test samples (in DMSO) and control (test mixtures containing
only DMSO) incubated at 37 °C, and where Sb and Cb were fluorescence for samples incubated at 4 °C. […]

Another assay deals with Staphylococcus aureus. Put plainly: Antibacterial screening, S. aureus. The assay is classed as cell-based. On the procedure: as §1
The next assay has as its system Escherichia coli. Put plainly: Antibacterial screening, E. coli. The assay is classed as cell-based. On the procedure: as §1
Assay [5] deals with formation of Advanced Glycation Endproducts (AGEs), BSA-MGO (methyl glyoxal). Put plainly: BSA-MGO antiglycation assay. Format: biochemical, bovine. To be noted: at 2 mM.
The next assay relates to Microsporum canis. In words: Antifungal screening, M. canis. Format: cell-based. On the procedure:
as §1

For a further assay, the system named is Aspergillus fumigatus. Put plainly: Antifungal screening, A. fumigatus. Format: cell-based. On the procedure: as §1
Assay [6] concerns Leishmania promastigote stage. More on the design: method as in doi:10.1016/j.phytol.2014.04.009. To be noted: cited from earlier work.

Values after ≈ are worked out from the molar mass of the structure shown.

Take `C/C(=C\COc1ccc2ccc(=O)oc2c1)CC/C=C(\C)CC[C@@H](O)C(C)(C)O` [Compound 5, 10′R-Karatavacinol]: the IC50 in [1] turned out to be 20.4 µM; in the assay with Plasmodium falciparum K1, 16 µM; in the assay with Trypanosoma brucei, 32.4 µM; in the assay on Trypanosoma cruzi it was 9.4 µM; in the assay on Leishmania infantum it was 32.4 µM; in assay [2], 32 µM. In assay [4], this compound registered an IC50 of 1.83 mM. Moreover, the “BSA-Glucose IC50” value in assay [3] was “did not reach the 50% inhibition level”. The “BSA-Glucose % Inhibition” value in assay [3] was determined as 32%.

Regarding `Cc1ccc(C(=O)Nc2ccc(S(=O)(=O)O)c3cc(S(=O)(=O)O)cc(S(=O)(=O)O)c23)cc1NC(=O)c1cccc(NC(=O)Nc2cccc(C(=O)Nc3cc(C(=O)Nc4ccc(S(=O)(=O)O)c5cc(S(=O)(=O)O)cc(S(=O)(=O)O)c45)ccc3C)c2)c1` [suramine, reference compound], the half-inhibitory concentration (IC50) in the assay on Trypanosoma brucei was found to be 0.03 µM.

As to `CC(=O)OC(CC=C(C)C)/C(C)=C/C(O)C/C(C)=C/COc1ccc2ccc(=O)oc2c1` (centres unmarked) [Compound 3, 8′-O-Acetyl-asacoumarin A], the IC50 came out at 31.7 µM in assay [1]; 7.4 µM in the assay on Plasmodium falciparum K1; 32.4 µM with Trypanosoma brucei; 19.1 µM with Trypanosoma cruzi; 12.7 µM with Leishmania infantum; 32 µM in assay [2]. This compound came in with a half-maximal inhibitory concentration (IC50) in assay [4] of 1.03 mM. For the same compound, the “BSA-Glucose IC50” value in assay [3] is “did not reach the 50% inhibition level”. In addition, the “BSA-Glucose % Inhibition” value in assay [3] worked out at 44%.

Consider `N=C(N)NN` [Aminoguanidine, reference compound], for which the 50% inhibitory concentration (IC50) in [3] was 1.75 mM; in assay [4], 0.15 mM.

On to `CC[C@H]1OC(=O)[C@H](C)[C@@H](O[C@H]2C[C@@](C)(OC)[C@@H](O)[C@H](C)O2)[C@H](C)[C@@H](O[C@@H]2O[C@H](C)C[C@H](N(C)C)[C@H]2O)[C@](C)(O)C[C@@H](C)C(=O)[C@H](C)[C@@H](O)[C@]1(C)O` [erythromycin], for which, in the assay with Staphylococcus aureus, it took 11.2 µg/mL (≈ 15.3 µM) to reach half-maximal inhibition (IC50).

For the compound `COc1cc(Cc2cnc(N)nc2N)cc(OC)c1OC` [trimethoprim], the IC50 in the assay on Escherichia coli came to 0.25 µg/mL.

The compound `CC1=CC(=O)[C@@H]2C(C)(C)[C@H](O)CC[C@@]2(C)[C@@H]1COc1ccc2ccc(=O)oc2c1` [Compound 2, Ligupersin A] displayed a concentration for half-maximal inhibition (IC50) in [3] of 0.41 mM. For the same compound, the “BSA-MGO IC50” value in [4] is listed as “the 50% inhibition level was not reached”. For the same compound, the “BSA-MGO % Inhibition” value in [5] was 40%.

As for `O=C(N[C@H](CO)[C@H](O)c1ccc([N+](=O)[O-])cc1)C(Cl)Cl` [chloramphenicol], in the assay on Escherichia coli, inhibition was half-maximal at 4.9 µM (IC50).

As for `CC(C)=CCC(O)/C(C)=C/C(O)C/C(C)=C/COc1ccc2ccc(=O)oc2c1` (centres unmarked) [Compound 4, Asacoumarin A], the IC50 was found to be 11.7 µM in assay [1]; 1.3 µM in the assay with Plasmodium falciparum K1; 32.6 µM in the assay on Trypanosoma brucei; 10.5 µM in the assay with Trypanosoma cruzi; 12.7 µM in the assay with Leishmania infantum; 32 µM in assay [2]. The same compound gave an IC50 in [3] of 1.83 mM. Also, the “BSA-MGO IC50” value in [4] is on record as “the 50% inhibition level was not reached”. In addition, in assay [5], the “BSA-MGO % Inhibition” value came to 35%.

On to `CN(C/C=C/C#CC(C)(C)C)Cc1cccc2ccccc12` [terbinafine], for which the half-inhibitory concentration (IC50) was 0.11 µg/mL (≈ 0.377 µM) with Microsporum canis and 800 nM in the assay with Aspergillus fumigatus.

With `O=C(Cn1ccnc1[N+](=O)[O-])NCc1ccccc1` [benznidazole, reference compound], the IC50 with Trypanosoma cruzi came out at 3.3 µM.

As for `O=c1c(O)c(-c2ccc(O)c(O)c2)oc2cc(O)cc(O)c12` [Quercetin, reference compound], the half-inhibitory concentration (IC50) in [3] stood at 0.23 mM; in assay [4], 0.35 mM.

For `CCN(CC)CCCC(C)Nc1ccnc2cc(Cl)ccc12` (centres unmarked) [chloroquine, reference compound], the IC50 in the assay on Plasmodium falciparum K1 is 0.16 µM.

Take `CC(=O)O[C@H](CC/C(C)=C/CC/C(C)=C/COc1ccc2ccc(=O)oc2c1)C(C)(C)O` [Compound 6, 10′R-Acetyl-karatavacinol]: in assay [3], the “BSA-Glucose IC50” value was “did not reach the 50% inhibition level” and the “BSA-Glucose % Inhibition” value was determined as 36%. The “BSA-MGO IC50” value in assay [4] is reported as “the 50% inhibition level was not reached”. Further, in assay [5], the “BSA-MGO % Inhibition” value was found to be 20%.

As to `CC1=CC[C@@H]2C(C)(C)[C@@H](O)CC[C@@]2(C)[C@@H]1COc1ccc2ccc(=O)oc2c1` [conferol], the “IC value, antileishmanial activity” value in assay [6] is 11.51 µg/mL.

Regarding `CC1=CC[C@@H]2C(C)(C)[C@H](O)CC[C@@]2(C)[C@@H]1COc1ccc2ccc(=O)oc2c1` [Compound 1, Feselol], the half-inhibitory concentration (IC50) in assay [1] was determined as 8 µM; with Plasmodium falciparum K1, 22.4 µM; in the assay with Trypanosoma brucei, 8.1 µM; with Trypanosoma cruzi, 8.6 µM; in the assay with Leishmania infantum it was 6.8 µM; in assay [2] it was 8 µM. The compound further returned an IC50 in assay [4] of 1.71 mM. Moreover, the “BSA-Glucose IC50” value in assay [3] is reported as “did not reach the 50% inhibition level”. Further, the “BSA-Glucose % Inhibition” value in [3] is 47%.
